Measurements from US20230348369A1 (Cytokinetics, Inc., priority 2020, published 2023).

Target: human NAMPT (Homo sapiens, UniProt P43490)
Experiment: Human recombinant enzyme assay (NMN fluorescence biochemical assay, activation of NAMPT)
Settings: Table A, human recombinant NAMPT, NMN formation, 60 min; for EC50: read-out: EC50 Human
In short: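 NMN production is detected fluorometrically (Ex 355/Em 460 nm) 40 min after acetophenone, KOH and formic acid derivatization. Reactions ran 60 min at ambient temperature: 6 nM human NAMPT, nicotinamide 150 μM, PRPP 20 μM, ATP 2.5 mM, buffered at pH 7.2 with 50 mM HEPES plus DTT, CHAPS, NaCl and 100 mM MgCl2.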

Sequence of human NAMPT (P43490 whole entry): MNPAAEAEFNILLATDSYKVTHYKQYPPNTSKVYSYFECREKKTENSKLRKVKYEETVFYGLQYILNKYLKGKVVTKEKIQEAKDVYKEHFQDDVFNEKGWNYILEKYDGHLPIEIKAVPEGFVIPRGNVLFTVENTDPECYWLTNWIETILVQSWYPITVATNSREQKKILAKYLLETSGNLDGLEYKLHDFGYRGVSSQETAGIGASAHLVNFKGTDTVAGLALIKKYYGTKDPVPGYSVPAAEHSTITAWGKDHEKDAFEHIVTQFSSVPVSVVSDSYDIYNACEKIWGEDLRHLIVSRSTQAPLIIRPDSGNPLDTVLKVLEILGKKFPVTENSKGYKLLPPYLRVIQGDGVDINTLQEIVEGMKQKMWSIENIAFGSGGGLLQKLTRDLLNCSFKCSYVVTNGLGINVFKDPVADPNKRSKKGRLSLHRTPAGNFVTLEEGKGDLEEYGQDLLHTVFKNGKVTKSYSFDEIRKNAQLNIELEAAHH

SMILES	AC1.4 Human	EC50
CC(C)(C)CN1CCN(C(=O)CCCCCNC(=O)NCc2ccc(Cl)cc2)CC1 [Compound 260, 1-(4-chlorobenzyl)-3-(6-(4-neopentylpiperazin-1-yl)-6-oxohexyl)urea]	2.0 µM	17.5 µM
Cc1ccccc1NC(=O)CCCCCNC(=O)NCc1ccc(Cl)cc1 [Compound 262, 6-(3-(4-chlorobenzyl)ureido)-N-(o-tolyl)hexanamide]	0.6 µM	4.9 µM
O=C(CCCCCNC(=O)NCc1ccc(Cl)cc1)Nc1ccncc1 [Compound 263, 6-(3-(4-chlorobenzyl)ureido)-N-(pyridin-4-yl)hexanamide]	1.4 µM	10.2 µM
Cc1cccc(N(C)C(=O)CCCCCNC(=O)NCc2ccc(Cl)cc2)c1 [Compound 264, 6-(3-(4-chlorobenzyl)ureido)-N-methyl-N-(m-tolyl)hexanamide]	1.0 µM	6.7 µM
CN(C(=O)CCCCCNC(=O)NCc1ccc(Cl)cc1)c1ccncc1 [Compound 265, 6-(3-(4-chlorobenzyl)ureido)-N-methyl-N-(pyridin-4-yl)hexanamide]	0.8 µM	1.6 µM
Cc1ccccc1N(C)C(=O)CCCCCNC(=O)NCc1ccc(Cl)cc1 [Compound 266, 6-(3-(4-chlorobenzyl)ureido)-N-methyl-N-(o-tolyl)hexanamide]	0.5 µM	1.8 µM
Cc1cccc(CN(C)C(=O)CCCCCNC(=O)NCc2ccc(Cl)cc2)c1 [Compound 267, 6-(3-(4-chlorobenzyl)ureido)-N-methyl-N-(3-methylbenzyl)hexanamide]	2.0 µM	7.9 µM
CN(Cc1ccccc1)C(=O)CCCCCNC(=O)NCc1ccc(Cl)cc1 [Compound 269, N-benzyl-6-(3-(4-chlorobenzyl)ureido)-N-methylhexanamide]	0.7 µM	5.1 µM
CN(C(=O)CCCCCNC(=O)NCc1ccc(Cl)cc1)c1cccnc1 [Compound 270, 6-(3-(4-chlorobenzyl)ureido)-N-methyl-N-(pyridin-3-yl)hexanamide]	1.1 µM	3.9 µM
CN(C(=O)CCCCCNC(=O)NCc1ccc(Cl)cc1)c1ccccn1 [Compound 271, 6-(3-(4-chlorobenzyl)ureido)-N-methyl-N-(pyridin-2-yl)hexanamide]	0.9 µM	3.7 µM
O=C(CCCCCNC(=O)NCc1ccc(Cl)cc1)Nc1ccccc1F [Compound 272, 6-(3-(4-chlorobenzyl)ureido)-N-(2-fluorophenyl)hexanamide]	0.9 µM	2.6 µM
O=C(CCCCCNC(=O)NCc1ccc(Cl)cc1)Nc1ccccc1-c1ccccc1 [Compound 273, N-([1,1′-biphenyl]-2-yl)-6-(3-(4-chlorobenzyl)ureido)hexanamide]	0.9 µM	0.3 µM
CN(C(=O)CCCCCNC(=O)NCc1ccc(Cl)cc1)c1ccccc1F [Compound 274, 6-(3-(4-chlorobenzyl)ureido)-N-(2-fluorophenyl)-N-methylhexanamide]	1.9 µM	0.3 µM
Cc1ccccc1C(=O)NCCCCCNC(=O)NCc1ccc(Cl)cc1 [Compound 275, N-(5-(3-(4-chlorobenzyl)ureido)pentyl)-2-methylbenzamide]	1.9 µM	11.4 µM
Cc1cccc(C(=O)NCCCCCNC(=O)NCc2ccc(Cl)cc2)c1 [Compound 276, N-(5-(3-(4-chlorobenzyl)ureido)pentyl)-3-methylbenzamide]	1.5 µM	9.5 µM
O=C(NCCCCCNC(=O)c1cccnc1)NCc1ccc(Cl)cc1 [Compound 277, N-(5-(3-(4-chlorobenzyl)ureido)pentyl)nicotinamide]	3.2 µM	6.9 µM
Cc1ccc(NC(=O)CCCCCNC(=O)NCc2ccc(Cl)cc2)cn1 [Compound 278, 6-(3-(4-chlorobenzyl)ureido)-N-(6-methylpyridin-3-yl)hexanamide]	1.8 µM	7.1 µM
O=C(NCCCCCNC(=O)c1ccccn1)NCc1ccc(Cl)cc1 [Compound 279, N-(5-(3-(4-chlorobenzyl)ureido)pentyl)picolinamide]	1.8 µM	11.8 µM
O=C(NCCCCCNC(=O)c1ccccc1F)NCc1ccc(Cl)cc1 [Compound 280, N-(5-(3-(4-chlorobenzyl)ureido)pentyl)-2-fluorobenzamide]	0.7 µM	2.6 µM
Cc1ccc(C(=O)NCCCCCNC(=O)NCc2ccc(Cl)cc2)cn1 [Compound 281, N-(5-(3-(4-chlorobenzyl)ureido)pentyl)-6-methylnicotinamide]	1.3 µM	3.9 µM
COc1ccc(CNC(=O)NCCCCCC(=O)N(C)c2ccccc2F)cc1 [Compound 282, N-(2-fluorophenyl)-6-(3-(4-methoxybenzyl)ureido)-N-methylhexanamide]	0.1 µM	3.9 µM
O=C(Cc1cccnc1)NCCCCCNC(=O)NCc1ccc(Cl)cc1 [Compound 283, N-(5-(3-(4-chlorobenzyl)ureido)pentyl)-2-(pyridin-3-yl)acetamide]	8.6 µM	32.8 µM
O=C(CCCCCNC(=O)NCc1ccc(Cl)cc1)Nc1ccc(F)cc1 [Compound 284, 6-(3-(4-chlorobenzyl)ureido)-N-(4-fluorophenyl)hexanamide]	2.8 µM	4.2 µM
O=C(CCCCCNC(=O)NCc1ccc(Cl)cc1)Nc1cccc(F)c1 [Compound 285, 6-(3-(4-chlorobenzyl)ureido)-N-(3-fluorophenyl)hexanamide]	3.5 µM	9.4 µM
CN(C(=O)CCCCCNC(=O)NCc1ccncc1)c1ccccc1F [Compound 286, N-(2-fluorophenyl)-N-methyl-6-(3-(pyridin-4-ylmethyl)ureido)hexanamide]	0.2 µM	2 µM

Continued, values first:

AC1.4 Human	EC50	SMILES
2.6 µM	6.1 µM	O=C(NCc1ccc(Cl)cc1)NC1CC2(CC(CNC(=O)C3CCCC3)C2)C1 (centres unmarked) [Compound 251, N-((6-(3-(4-chlorobenzyl)ureido)spiro[3.3]heptan-2-yl)methyl)cyclopentanecarboxamide]
2.8 µM	9.1 µM	O=C1CC(C(=O)NCC2CC3(C2)CC(NC(=O)NCc2ccc(Cl)cc2)C3)CCN1 (centres unmarked) [Compound 252, N-((6-(3-(4-chlorobenzyl)ureido)spiro[3.3]heptan-2-yl)methyl)-2-oxopiperidine-4-carboxamide]
3.2 µM	5.5 µM	CC(C1CC2(CC(NC(=O)NCc3ccc(Cl)cc3)C2)C1)N1CCN(C)C(=O)C1 (centres unmarked) [Compound 253, 1-(4-chlorobenzyl)-3-(6-(1-(4-methyl-3-oxopiperazin-1-yl)ethyl)spiro[3.3]heptan-2-yl)urea]
1.5 µM	2.3 µM	CN1CCN(CC2CC3(C2)CC(NC(=O)NCc2ccc(Cl)cc2)C3)C(c2ccccc2)C1 (centres unmarked) [Compound 254, 1-(4-chlorobenzyl)-3-(6-((4-methyl-2-phenylpiperazin-1-yl)methyl)spiro[3.3]heptan-2-yl)urea]
2.5 µM	6.5 µM	Cc1ccc(C(=O)NC(C)C2CC3(CC(NC(=O)NCc4ccc(Cl)cc4)C3)C2)cn1 (centres unmarked) [Compound 255, N-(1-(6-(3-(4-chlorobenzyl)ureido)spiro[3.3]heptan-2-yl)ethyl)-6-methylnicotinamide]
2.7 µM	17.9 µM	O=C(CCCCCNC(=O)NCc1ccc(Cl)cc1)NC1CCCCC1 [Compound 257, 6-(3-(4-chlorobenzyl)ureido)-N-cyclohexylhexanamide]
3.8 µM	23.1 µM	O=C(CCCCCNC(=O)NCc1ccc(Cl)cc1)NC1CCCC1 [Compound 258, 6-(3-(4-chlorobenzyl)ureido)-N-cyclopentylhexanamide]
8.6 µM	59.4 µM	O=C(NCCCCCC(=O)N1CCOCC1)NCc1ccc(Cl)cc1 [Compound 259, 1-(4-chlorobenzyl)-3-(6-morpholine-6-oxohexyl)urea]
2.8 µM	42.9 µM	CC(C)(O)CN1CCN(C(=O)CCCCCNC(=O)NCc2ccc(Cl)cc2)CC1 [Compound 261, 1-(4-chlorobenzyl)-3-(6-(4-(2-hydroxy-2-methylpropyl)piperazin-1-yl)-6-oxohexyl)urea]
1.1 µM	7.7 µM	O=C(NCCCCC1CCN(C(=O)c2cccnc2)CC1)NCc1ccc(Cl)cc1 [Compound 289, 1-(4-chlorobenzyl)-3-(4-(1-nicotinoylpiperidin-4-yl)butyl)urea]
1.3 µM	6.2 µM	O=C(NCCCCC1CCN(C(=O)c2ccncc2)CC1)NCc1ccc(Cl)cc1 [Compound 290, 1-(4-chlorobenzyl)-3-(4-(1-isonicotinoylpiperidin-4-yl)butyl)urea]
1.9 µM	4.6 µM	O=C(NCCCCC1CCN(C(=O)Cc2ccccc2)CC1)NCc1ccc(Cl)cc1 [Compound 291, 1-(4-chlorobenzyl)-3-(4-(1-(2-phenylacetyl)piperidin-4-yl)butyl)urea]
0.5 µM	2 µM	O=C(NCCCCC1CCN(C(=O)c2ccccn2)CC1)NCc1ccc(Cl)cc1 [Compound 292, 1-(4-chlorobenzyl)-3-(4-(1-picolinoylpiperidin-4-yl)butyl)urea]
1.0 µM	10.1 µM	O=C(NCCCCC1CCN(C(=O)Cc2cccnc2)CC1)NCc1ccc(Cl)cc1 [Compound 294, 1-(4-chlorobenzyl)-3-(4-(1-(2-(pyridin-3-yl)acetyl)piperidin-4-yl)butyl)urea]
1.2 µM	8.4 µM	O=C(NCCCCC1CCN(C(=O)Cc2ccncc2)CC1)NCc1ccc(Cl)cc1 [Compound 295, 1-(4-chlorobenzyl)-3-(4-(1-(2-(pyridin-4-yl)acetyl)piperidin-4-yl)butyl)urea]
